# Assay results as given in patent publication US20100234372A1, “SUBSTITUTED 2-MERCAPTOQUINOLINE-3-CARBOXAMIDES AS KCNQ2/3 MODULATORS” (GRUNENTHAL GMBH, priority 2009, published 2010).
# How the values were obtained:
# [1] = target: T1, KCNQ2/3 channels (Homo sapiens, UniProt O43525+O43526); test: Fluorescence assay using a voltage-sensitive dye (fluorimetry); assay type: cell-based; conditions: for EC50: CHO-K1 cells expressing KCNQ2/3 channels; for Emax at 1 µM: 50 μM retigabine = 100%, CHO-K1 cells expressing KCNQ2/3, read-out: Fluorimetry % efficacy at 1 μM (50 μM retigabine = 100%)
# T1 construct: expressed in transfected cells; host or cells: CHO-K1 cells
# Method: […] CHO-K1 cells expressing KCNQ2/3 channels are cultivated adherently at 37° C., 5% CO2 and 95% humidity in cell culture bottles (e.g. 80 cm^2 TC flasks, Nunc) with DMEM-high glucose (Sigma Aldrich, D7777) including 10% FCS (PAN Biotech, e.g. 3302-P270521) or alternatively MEM Alpha Medium (1×, liquid, Invitrogen, #22571), 10% foetal calf serum (FCS) (Invitrogen, #10270-106, heat-inactivated) and the necessary selection antibiotics.
# Before being seeded out for the measurements, the cells are washed with a 1×DPBS buffer without Ca^2+/Mg^2+ (e.g. Invitrogen, #14190-094) and detached from the bottom of the culture vessel by means of Accutase (PAA Laboratories, #L11-007) (incubation with Accutase for 15 min at 37° C.). The cell count then present is determined using a CASY™ cell counter (TCC model, Scharfe System) in order subsequently to apply 20,000 to 30,000 cells/well/100 μl of the described nutrient medium, depending on density optimisation for the individual cell line, to 96-well measuring plates of the Corning™ CeIIBIND™ type (flat clear-bottom black polystyrene microplates, #3340). Incubation is then carried out for one hour at room temperature, without gassing or adjusting the humidity, followed by incubation for 24 hours at 37° C., 5% CO2 and 95% humidity.
# The voltage-sensitive fluorescent dye from the Membrane Potential Assay Kit (Red™ bulk format part R8123 for FLIPR, MDS Analytical Technologies™) is prepared by dissolving the contents of a vessel of Membrane Potential Assay Kit Red Component A in 200 ml of extracellular buffer (ES buffer, 120 mM NaCl, 1 mM KCl, 10 mM HEPES, 2 mM CaCl2, 2 mM MgCl2, 10 mM glucose; pH 7.4). After removal of the nutrient medium, the cells are washed with 200 μl of ES buffer, then covered with a layer of 100 μl of the dye solution prepared above and incubated for 45 min at room temperature with exclusion of light.
# The fluorescence measurements are carried out with a BMG Labtech FLUOstar™, BMG Labtech NOVOstar™ or BMG Labtech POLARstar™ instrument (525 nm excitation, 560 nm emission, bottom-read mode). After incubation of the dye, 50 μl of the substances to be tested in the desired concentrations, or 50 μl of ES buffer for control purposes, are introduced into separate cavities of the measuring plate and incubated for 30 min at room temperature whilst being shielded from light. The fluorescence intensity of the dye is then measured for 5 min and the fluorescence value F1 of each well is thus determined at a given, constant time. 15 μl of a […] KCl solution ([…]) are then added to each well. The change in fluorescence is subsequently measured until all relevant measured values have been obtained (mainly 5-30 min). At a given time after KCl application, a fluorescence value F2 is determined, in this case at the time of the fluorescence peak.
# For calculation, the fluorescence intensity F2 is compared with the fluorescence intensity F1, and the agonistic activity of the target compound on the potassium channel is determined therefrom. F2 and F1 are calculated as follows: […]
# is determined by adding to the reaction batch only the buffer solution instead of the substance to be tested, determining the value F1K of the fluorescence intensity, adding the potassium ions as described above and measuring a value F2K of the fluorescence intensity. Then F2K and F1K are calculated as follows: […]
# Calculations of EC50 values are carried out with the aid of Prism v4.0 software (GraphPad Software™).
# [2] = system: Male Sprague-Dawley rats; test: Low-intensity tail flick in rats; assay type: in vivo; conditions: po, rat
# Text: The antinociceptive activity of the test substance against an acute noxic thermal stimulant was examined in the tail-flick test in rats using the method described by D′Amour and Smith (J. Pharm. Exp. Ther. 72, 74 79 (1941)). Male Sprague-Dawley rats weighing between 200 and 250 g were used (breeder: Janvier, Le Genest St. Isle, France). The animals were placed in special test compartments and the base of the tail was exposed to a focused light beam from an analgesia meter (model 2011, Rhema Labortechnik, Hofheim, Germany). 10 animals were used per group. Before administering a substance according to the invention, the tail-flick latency (time from switching on the light beam to the flick of the tail) was measured twice at an interval of five minutes and the average was defined as the control latency time. The intensity of the light beam was chosen so that the control latency time was 7 to 9 seconds.
# The measurement of the tail-flick latency was then repeated 10, 20, 30 and 60 minutes after peroral administration of the substance. The antinociceptive action of the test substance was determined as the increase in the tail-flick latency time using the following formula:
# where T0=control latency time before administration of the substance, T1=latency time after administration of the substance, T2=maximum exposure time to the light beam (30 seconds), MPE=maximum possible effect.
# Analysis of variance (repeated measures ANOVA) was used to test for statistically significant differences between the substance and vehicle group. The significance level was set at ≦0.05.
SMILES,EC50 [1],Emax at 1 µM [1],"inhibition in vivo at 4.64 mg/kg ([2]; p.o., dose 4.64 mg/kg, MPE, read-out: Low-intensity tail flick rat p.o. % effect (dose [mg/kg]))",ED50 [2],"inhibition in vivo at 21.5 mg/kg ([2]; p.o., dose 21.5 mg/kg, MPE, read-out: Low-intensity tail flick rat p.o. % effect (dose [mg/kg]))"
Cc1c(C(=O)NCc2ccc(F)cc2)c(SC(C)(C)C)nc2cc(C(F)(F)F)ccc12 [compound 94],54 nM,162%,71%,–,–
Cc1c(C(=O)NCc2cccs2)c(SC(C)(C)C)nc2cc(C(F)(F)F)ccc12 [compound 89],64 nM,220%,–,2.7 mg/kg,–
CCSc1nc2cc(C(F)(F)F)ccc2c(C)c1C(=O)NCc1cccc(F)c1 [compound 76],92 nM,182%,–,6.3 mg/kg,–
CCSc1nc2cc(C(F)(F)F)ccc2cc1C(=O)NCc1cccs1 [compound 14],291 nM,223%,–,–,9%
CCSc1nc2cc(C(F)(F)F)ccc2c(C)c1C(=O)NCc1ccccc1F [compound 75],71 nM,88%,–,–,–
O=C(NCc1cccs1)c1cc2ccccc2nc1SCCCC1CCCCC1 [compound 3],1930 nM,77%,–,–,–
CCSc1nc2cc(C(C)(C)C)ccc2c(C)c1C(=O)NCc1ccc(F)cc1 [compound 96],808 nM,101%,–,–,–
CCSc1nc2cccc(F)c2c(C)c1C(=O)NCc1cccc(F)c1 [compound 123],–,8%,–,–,–
Cc1ccc(S(=O)(=O)CCSc2nc3ccccc3cc2C(=O)NCc2cccs2)cc1 [compound 17],–,77%,–,–,–
CCSc1nc2cc(C(F)(F)F)ccc2c(C)c1C(=O)NCc1ccccc1Cl [compound 78],–,33%,–,–,–
CCSc1nc2cc(C(F)(F)F)ccc2c(C)c1C(=O)NCCc1cccs1 [compound 72],732 nM,59%,–,–,–
CCSc1nc2ccc(C(F)(F)F)cc2c(C)c1C(=O)NCc1cccc(F)c1 [compound 103],784 nM,115%,–,–,–
CCC(C)Sc1nc2cc(C(F)(F)F)ccc2c(C)c1C(=O)NCc1cccc(F)c1 (stereo not shown) [compound 51],37 nM,158%,–,–,–
CCSc1nc2ccc(C)cc2c(C)c1C(=O)NCc1ccc(F)cc1 [compound 100],337 nM,45%,–,–,–
CCCCCSc1nc2cc(C(F)(F)F)ccc2cc1C(=O)NCc1cccs1 [compound 15],778 nM,145%,–,–,–
"CCCCCSc1nc2ccc(C(F)(F)F)cc2cc1C(=O)NCc1cccs1 [compound 11, 2-(Pentylthio)-N-(2-thienylmethyl)-6-(trifluoromethyl)-3-quinoline carboxamide]",–,41%,–,–,–
"CCSc1nc2cc(OC(F)(F)F)ccc2c(C)c1C(=O)NCc1ccc(F)cc1 [compound 132, 2-Ethylsulfanyl-N-[(4-fluorophenyl)-methyl]-4-methyl-7-(trifluoromethyloxy)-quinoline-3-carboxamide]",51 nM,161%,–,–,–
CCSc1nc2cccc(OC)c2c(C)c1C(=O)NCc1cccc(F)c1 [compound 125],–,14%,–,–,–
CCSc1nc2ccccc2c(C)c1C(=O)NCc1cccc(F)c1 [compound 92],950 nM,65%,–,–,–
"O=C(NCc1cccs1)c1cc2cc(C(F)(F)F)ccc2nc1SCCS(=O)(=O)c1ccccc1 [compound 8, 2-[2-(Phenylsulfonyl)ethylthio]-N-(2-thienyl-methyl)-6-(trifluoromethyl)-3-quinoline carboxamide]",–,46%,–,–,–

SMILES,EC50 [1],Emax at 1 µM [1],"inhibition in vivo at 4.64 mg/kg ([2]; p.o., dose 4.64 mg/kg, MPE, read-out: Low-intensity tail flick rat p.o. % effect (dose [mg/kg]))",ED50 [2],"inhibition in vivo at 21.5 mg/kg ([2]; p.o., dose 21.5 mg/kg, MPE, read-out: Low-intensity tail flick rat p.o. % effect (dose [mg/kg]))"
CCSc1nc2cc(C(F)(F)F)ccc2c(C)c1C(=O)NCc1cccc(Cl)c1 [compound 79],124 nM,116%,–,–,–
CSc1nc2cc(C(F)(F)F)ccc2c(C)c1C(=O)NCc1cccc(F)c1 [compound 114],169 nM,175%,–,–,–
"O=C(NCc1cccs1)c1cc2ccccc2nc1SCCS(=O)(=O)c1cccc(C(F)(F)F)c1 [compound 13, N-(2-Thienylmethyl)-2-[2-[3-(trifluoromethyl)-phenyl]sulfonylethylthio]-3-quinoline carboxamide]",991 nM,136%,–,–,–
CCSc1nc2cccc(O)c2c(C)c1C(=O)NCc1cccc(F)c1 [compound 127],–,18%,–,–,–
CCSc1nc2cc(C(F)(F)F)ccc2c(C)c1C(=O)NCc1ccc(Cl)s1 [compound 71],305 nM,163%,–,–,–
"CCSc1nc2ccccc2cc1C(=O)NCc1cccs1 [compound 7, 2-(Ethylthio)-N-(2-thienylmethyl)-3-quinoline carboxamide]",1350 nM,–,–,–,–
CCSc1nc2cc(C(F)(F)F)ccc2c(C)c1C(=O)NCc1ccc(OC)cc1 [compound 86],565 nM,108%,–,–,–
CCSc1nc2cc(C(F)(F)F)ccc2c(C)c1C(=O)NCc1ccccc1C [compound 81],–,28%,–,–,–
"CCSc1nc2cc(C(F)(F)F)ccc2c(OC)c1C(=O)NCc1cccc(F)c1 [compound 130, 2-Ethylsulfanyl-N-[(3-fluorophenyl)-methyl]-4-methoxy-7-(trifluoromethyl)-quinoline-3-carboxamide]",58 nM,180%,–,–,–
CCSc1nc2cc(N3CCOCC3)ccc2c(C)c1C(=O)NCc1cccc(F)c1 [compound 134],–,21%,–,–,–
CCSc1nc2ccc(C(F)(F)F)cc2cc1C(=O)NCc1cccs1 [compound 12],412 nM,155%,–,–,–
CCSc1nc2cc(F)c(F)cc2c(C)c1C(=O)NCc1cccc(F)c1 [compound 118],147 nM,149%,–,–,–
CCSc1nc2cc(C(F)(F)F)ccc2c(C)c1C(=O)NCc1ccncc1 [compound 35],2650 nM,142%,–,–,–
CCSc1nc2cc(C(F)(F)F)ccc2c(C)c1C(=O)NCc1ccc2ccccc2c1 [compound 43],159 nM,77%,–,–,–
CCSc1nc2cc(C(F)(F)F)ccc2c(C)c1C(=O)NCC1CCCCCC1 [compound 29],367 nM,86%,–,–,–
CCSc1nc2cc(C(F)(F)F)ccc2c(C)c1C(=O)NCc1cccc(OC)c1 [compound 85],413 nM,89%,–,–,–
CCSc1nc2cc(C(F)(F)F)ccc2c(C)c1C(=O)NCc1ccc(C)cc1 [compound 83],242 nM,130%,–,–,–
CCSc1nc2cc(C(F)(F)F)ccc2c(C)c1C(=O)NCc1ccc(F)cc1F [compound 32],59 nM,70%,–,–,–
CCSc1nc2cc(C(F)(F)F)ccc2c(C)c1C(=O)NCc1cc(F)c(F)cc1F [compound 34],98 nM,72%,–,–,–
CCSc1nc2cccc(OC)c2c(C)c1C(=O)NCc1ccc(F)cc1 [compound 126],–,5%,–,–,–
